From patent US20240174674A1, “NITROGEN-CONTAINING POLYCYCLIC FUSED RING COMPOUND, PHARMACEUTICAL COMPOSITION THEREOF, PREPARATION METHOD THEREFOR, AND USE THEREOF” (APPLIED PHARMACEUTICAL SCIENCE, INC., priority 2021, published 2024)

Target: RET G810R (Homo sapiens (Human), UniProt P07949, G810R)
Test: HTRF KinEASE-TK kinase activity test, RET G810R
Settings: not given

Chain of RET G810R (P07949 29-1114 G810R): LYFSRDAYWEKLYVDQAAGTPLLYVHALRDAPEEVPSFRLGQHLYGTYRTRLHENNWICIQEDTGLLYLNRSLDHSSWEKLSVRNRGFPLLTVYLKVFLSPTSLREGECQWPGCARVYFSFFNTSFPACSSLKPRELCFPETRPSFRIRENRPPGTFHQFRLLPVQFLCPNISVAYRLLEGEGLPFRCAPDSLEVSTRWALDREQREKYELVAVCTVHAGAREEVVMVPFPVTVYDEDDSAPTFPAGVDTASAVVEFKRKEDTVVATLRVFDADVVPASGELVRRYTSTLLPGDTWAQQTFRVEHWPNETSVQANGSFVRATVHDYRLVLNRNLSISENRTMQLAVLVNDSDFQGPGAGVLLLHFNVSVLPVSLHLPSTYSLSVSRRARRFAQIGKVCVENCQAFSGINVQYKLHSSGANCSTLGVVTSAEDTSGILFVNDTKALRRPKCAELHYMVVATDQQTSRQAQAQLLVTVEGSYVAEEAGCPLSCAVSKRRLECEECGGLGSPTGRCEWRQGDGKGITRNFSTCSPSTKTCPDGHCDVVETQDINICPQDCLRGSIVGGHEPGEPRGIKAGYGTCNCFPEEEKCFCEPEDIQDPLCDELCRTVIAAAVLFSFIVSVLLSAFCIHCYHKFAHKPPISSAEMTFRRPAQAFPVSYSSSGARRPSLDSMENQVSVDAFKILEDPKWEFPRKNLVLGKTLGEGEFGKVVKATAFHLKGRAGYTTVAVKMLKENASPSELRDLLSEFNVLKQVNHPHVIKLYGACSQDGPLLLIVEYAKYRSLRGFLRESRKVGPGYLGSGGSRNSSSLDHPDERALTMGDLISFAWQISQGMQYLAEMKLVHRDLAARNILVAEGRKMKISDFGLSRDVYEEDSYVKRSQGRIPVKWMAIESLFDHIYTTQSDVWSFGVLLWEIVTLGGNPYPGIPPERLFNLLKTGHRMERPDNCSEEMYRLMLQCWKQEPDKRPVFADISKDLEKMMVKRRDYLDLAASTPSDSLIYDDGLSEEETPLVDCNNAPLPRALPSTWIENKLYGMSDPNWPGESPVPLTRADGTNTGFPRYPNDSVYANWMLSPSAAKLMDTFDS

Structure (SMILES)	IC50
COc1ccc(CN2C3CC2CN(c2ccc(-c4cc(OCC(=O)O)cn5nc6[nH]ncc6c45)cn2)C3)cn1 [Compound 240, 2-((4-(6-(6-((6-methoxypyridin-3-yl)methyl)-3,6-diazabicyclo[3.1.1]heptan-3-yl)pyridin-3-yl)-1 H-pyrazolo[3′,4′:3,4]pyrazolo[1,5-α]pyridin-6-yl)oxy)acetic acid]	4 nM

Same assay, conditions: fold versus selpercatinib (LOXO-292)

Structure (SMILES)	inhibitory activity against RET G810R relative to that of selpercatinib (LOXO-292)
CCOc1cc(-c2ccc(N3C[C@H]4C[C@H](NC(=O)c5c(F)cccc5Cl)C[C@H]4C3)nc2)c2c3cn[nH]c3nn2c1 [Compound 174]	≥ 10 times
CCOc1cc(-c2ccc(N3CC[C@H](NC(=O)c4c(F)cccc4F)[C@H](O)C3)nc2)c2c3cn[nH]c3nn2c1 [Compound 233]	≥ 10 times
CCOc1cc(-c2ccc(N3CCC(CN(C)C)(NC(=O)c4c(F)cccc4F)CC3)nc2)c2c3cn[nH]c3nn2c1 [Compound 234, N-(4-((dimethylamino)methyl)-1-(5-(6-ethoxy-1H-pyrazolo[3′,4′:3,4]pyrazolo[1,5-α]pyridin-4-yl)pyridin-2-yl)piperidin-4-yl)-2,6-difluorobenzamide]	≥ 10 times
COc1cc(-c2ccc(N3CC4CC(C3)N4Cc3ccc(OC)nc3)nc2)c2c3cn[nH]c3nn2c1 [Compound 235]	≥ 10 times
O=C(N[C@H]1CCN(c2ccc(-c3cc(OCCF)cn4nc5[nH]ncc5c34)cn2)C[C@H]1O)c1c(F)cccc1F [Compound 267, N-((3R,4S)-1-(5-(6-(2-fluoroethoxy)-1H-pyrazolo[3′,4′:3,4]pyrazolo[1,5-α]pyridin-4-yl)pyridin-2-yl)-3-hydroxypiperidin-4-yl)-2,6-difluorobenzamide]	≥ 10 times

Same assay, conditions: read-out: RET G810R IC50; HTRF kinase assay

Structure (SMILES)	IC50
CCOc1cc(-c2ccc(N3C[C@@H]4[C@H](C3)[C@@H]4NCc3ccc(OC)nc3)nc2)c2c3cn[nH]c3nn2c1 [Compound 173]	12.5 nM
CCOc1cc(-c2ccc(N3C[C@H]4C[C@H](NC(=O)c5c(F)cccc5Cl)C[C@H]4C3)nc2)c2c3cn[nH]c3nn2c1 [Compound 174]	3.5 nM
CCOc1cc(-c2ccc(N3C[C@@H]4C5CCC([C@@H]4C3)N5C(=O)c3c(F)cccc3Cl)nc2)c2c3cn[nH]c3nn2c1 [Compound 180, (2-chloro-6-fluorophenyl)((3aR,7aS)-2-(5-(6-ethoxy-1H-pyrazolo[3′,4′:3,4]pyrazolo[1,5-α]pyridin-4-yl)pyridin-2-yl)octahydro-1H-4,7-epiminoisoindol-8-yl)methanone]	9.7 nM
CCOc1cc(-c2ccc(N3C[C@@H]4[C@@H](CNC(=O)c5c(F)cccc5Cl)[C@@H]4C3)nc2)c2c3cn[nH]c3nn2c1 [Compound 183, 2-chloro-N-(((1R,5S,6s)-3-(5-(6-ethoxy-1H-pyrazolo[3′,4′:3,4]pyrazolo[1,5-α]pyridin-4-yl)pyridin-2-yl)-3-azabicyclo[3.1.0]hexan-6-yl)methyl)-6-fluorobenzamide]	8 nM
CCOc1cc(-c2ccc(N3CC4(CCCN4Cc4ccc(OC)nc4)C3)nc2)c2c3cn[nH]c3nn2c1 [Compound 188, 6-ethoxy-4-(6-(5-((6-methoxypyridin-3-yl)methyl)-2,5-diazaspiro[3.4]octan-2-yl)pyridin-3-yl)-1 H-pyrazolo[3′,4′:3,4]pyrazolo[1,5-α]pyridine]	16.9 nM
CCOc1cc(-c2ccc(N3CC4(CCN(C(=O)c5c(F)cccc5Cl)C4)C3)nc2)c2c3cn[nH]c3nn2c1 [Compound 189]	15.3 nM
CCOc1cc(-c2ccc(N3CC4(CCCN(C(=O)c5c(F)cccc5Cl)C4)C3)nc2)c2c3cn[nH]c3nn2c1 [Compound 193, N-(2-(5-(6-ethoxy-1H-pyrazolo[3′,4′:3,4]pyrazolo[1,5-α]pyridin-4-yl)pyridin-2-yl)-2,6-diazaspiro [3.5]nonan-6-yl)-2-chloro-6-fluorobenzamide]	33.7 nM
CCOc1cc(-c2ccc(N3CCC4(CC3)CCN4C(=O)c3c(F)cccc3Cl)nc2)c2c3cn[nH]c3nn2c1 [Compound 201, N-(7-(5-(6-ethoxy-1H-pyrazolo[3′,4′:3,4]pyrazolo[1,5-α]pyridin-4-yl)pyridin-2-yl)-1,7-diazaspiro [3.5]nonan-1-yl)-2-chloro-6-fluorobenzamide]	4.1 nM
CCOc1cc(-c2ccc(N3CCC4(CCCN4Cc4ccc(OC)nc4)CC3)nc2)c2c3cn[nH]c3nn2c1 [Compound 207, 6-ethoxy-4-(6-(1-((6-methoxypyridin-3-yl)methylene)-1,8-diazaspiro[4.5]octan-8-yl)pyridin-3-yl) -1H-pyrazolo[3′,4′:3,4]pyrazolo[1,5-α]pyridine]	49 nM
CCOc1cc(-c2ccc(N3CCC4(CCN(C(=O)c5c(F)cccc5Cl)C4)CC3)nc2)c2c3cn[nH]c3nn2c1 [Compound 208, N-(8-(5-(6-ethoxy-1H-pyrazolo[3′,4′:3,4]pyrazolo[1,5-α]pyridin-4-yl)pyridin-2-yl)-2,8-diazaspiro [4.5]decan-2-yl)-2-chloro-6-fluorobenzamide]	24.1 nM
CCOc1cc(-c2ccc(N3CCC4(CCCN(C(=O)c5c(F)cccc5Cl)C4)CC3)nc2)c2c3cn[nH]c3nn2c1 [Compound 214]	47.3 nM
CCOc1cc(-c2ccc(N3CCCC4(CCN(Cc5ccc(OC)nc5)CC4)C3)nc2)c2c3cn[nH]c3nn2c1 [Compound 219, 6-ethoxy-4-(6-(9-((6-methoxypyridin-3-yl)methylene)-2,9-diazaspiro[5.5]undecan-2-yl)pyridin-3-yl)-1H-pyrazolo[3′,4′:3,4]pyrazolo[1,5-α]pyridine]	66.4 nM
CCOc1cc(-c2ccc(N3CCC4(CN(C(=O)c5c(F)cccc5Cl)C4)C3)nc2)c2c3cn[nH]c3nn2c1 [Compound 220, N-(6-(5-(6-ethoxy-1H-pyrazolo[3′,4′:3,4]pyrazolo[1,5-α]pyridin-4-yl)pyridin-2-yl)-2,6-diazaspiro [3.4]octan-2-yl)-2-chloro-6-fluorobenzamide]	26.2 nM
C#CCOc1cc(-c2ccc(N3CC4CC(C3)N4Cc3ccc(OC)nc3)nc2)c2c3cn[nH]c3nn2c1 [Compound 227, 4-(6-(6-((6-methoxypyridin-3-yl)methylene)-3,6-diazabicyclo[3.1.1]heptan-3-yl)pyridin-3-yl)-6-(prop-2-yn-1-yloxy)-1H-pyrazolo[3′,4′:3,4]pyrazolo[1,5-α]pyridine]	4.01 nM
COC(=O)COc1cc(-c2ccc(N3CC4CC(C3)N4Cc3ccc(OC)nc3)nc2)c2c3cn[nH]c3nn2c1 [Compound 228, Methyl 2-((4-(6-(6-((6-methoxypyridin-3-yl)methylene)-3,6-diazabicyclo[3.1.1]heptan-3-yl)pyridin-3-yl)-1H-pyrazolo[3′,4′:3,4]pyrazolo[1,5-α]pyridin-6-yl)oxy)acetate]	5.7 nM
CCOc1cc(-c2ccc(N3CCC(CO)(NCc4ccc(OC)nc4)CC3)nc2)c2c3cn[nH]c3nn2c1 [Compound 229, (1-(5-(6-ethoxy-1H-pyrazolo[3′,4′:3,4]pyrazolo[1,5-α]pyridin-4-yl)pyridin-2-yl)-4-(((6-methoxypyridin-3-yl)methyl)amino)piperidin-4-yl)methanol]	38.1 nM
CCOc1cc(-c2ccc(N3CC[C@H](NC(=O)c4c(F)cccc4F)[C@H](O)C3)nc2)c2c3cn[nH]c3nn2c1 [Compound 233]	0.96 nM
CCOc1cc(-c2ccc(N3CCC(CN(C)C)(NC(=O)c4c(F)cccc4F)CC3)nc2)c2c3cn[nH]c3nn2c1 [Compound 234, N-(4-((dimethylamino)methyl)-1-(5-(6-ethoxy-1H-pyrazolo[3′,4′:3,4]pyrazolo[1,5-α]pyridin-4-yl)pyridin-2-yl)piperidin-4-yl)-2,6-difluorobenzamide]	1.6 nM
COc1cc(-c2ccc(N3CC4CC(C3)N4Cc3ccc(OC)nc3)nc2)c2c3cn[nH]c3nn2c1 [Compound 235]	2.2 nM
COc1ccc(CN2C3CC2CN(c2ccc(-c4cc(P(C)(C)=O)cn5nc6[nH]ncc6c45)cn2)C3)cn1 [Compound 237, (4-(6-(6-((6-methoxypyridin-3-yl)methyl)-3,6-diazabicyclo[3.1.1]heptan-3-yl)pyridin-3-yl)-1H-pyrazolo[3′,4′:3,4]pyrazolo[1,5-α]pyridin-6-yl)dimethylphosphine oxide]	112 nM
COc1ccc(CN2C3CC2CN(c2ccc(-c4cc(C(=O)O)cn5nc6[nH]ncc6c45)cn2)C3)cn1 [Compound 239, 4-(6-(6-((6-methoxypyridin-3-yl)methyl)-3,6-diazabicyclo[3.1.1]heptan-3-yl)pyridin-3-yl)-1H-py razolo[3′,4′:3,4]pyrazolo[1,5-α]pyridine-6-carboxylic acid]	33.7 nM
C=CC(=O)Oc1cc(-c2ccc(N3CC4CC(C3)N4Cc3ccc(OC)nc3)nc2)c2c3cn[nH]c3nn2c1 [Compound 242, 4-(6-(6-((6-methoxypyridin-3-yl)methyl)-3,6-diazabicyclo[3.1.1]heptan-3-yl)pyridin-3-yl)-1H-py razolo[3′,4′:3,4]pyrazolo[1,5-α]pyridin-6-yl acrylate]	4.7 nM
COc1ccc(CN2C3CC2CN(c2ccc(-c4cc(C#N)cn5nc6[nH]ncc6c45)cn2)C3)cn1 [Compound 243]	89 nM
CCOc1cc(-c2ccc(N3CCN(Cc4ccc(OC)nc4)C(CN(C)C)C3)nc2)c2c3cn[nH]c3nn2c1 (stereo not drawn) [Compound 245, 1-(4-(5-(6-ethoxy-1H-pyrazolo[3′,4′:3,4]pyrazolo[1,5-α]pyridin-4-yl)pyridin-2-yl)-1-((6-methoxypyridin-3-yl)methylene)piperazin-2-yl)-N,N-dimethylmethanamine]	20.8 nM
CCOc1cc(-c2ccc(N3CC4CC(C3)N4Cc3ccc(OC)nc3)nc2)c2c3c(C#N)n[nH]c3nn2c1 [Compound 248, 3-cyano-6-ethoxy-4-(6-(6-((6-methoxypyridin-3-yl)methyl)-3,6-diazabicyclo[3.1.1]heptan-3-yl)pyridin-3-yl)-1H-pyrazolo[3′,4′:3,4]pyrazolo[1,5-α]pyridine]	15.5 nM
CCOc1cc(-c2ccc(N3CCN(Cc4ccc(OC)nc4)C(CO)C3)nc2)c2c3cn[nH]c3nn2c1 (stereo not drawn) [Compound 249, (4-(5-(6-ethoxy-1H-pyrazolo[3′,4′:3,4]pyrazolo[1,5-α]pyridin-4-yl)pyridin-2-yl)-1-((6-methoxypyridin-3-yl)methylene)piperazin-2-yl)methanol]	13.5 nM
C=CC(=O)N1C2CC1CN(c1ccc(-c3cc(OCC)cn4nc5[nH]ncc5c34)cn1)C2 [Compound 250, 1-(3-(5-(6-ethoxy-1H-pyrazolo[3′,4′:3,4]pyrazolo[1,5-α]pyridin-4-yl)pyridin-2-yl)-3,6-diazabicyclo[3.1.1]heptan-6-yl)prop-2-en-1-one]	40.8 nM
CCOc1cc([C@H]2CC[C@](OC)(C(=O)N[C@@H](C)c3ccc(-n4cc(F)cn4)nc3)CC2)c2c3cn[nH]c3nn2c1 [Compound 258, (1S,4R)-4-(6-ethoxy-1H-pyrazolo[3′,4′:3,4]pyrazolo[1,5-α]pyridin-4-yl)-N—((S)-1-(6-(4-fluoro-1H-pyrazol-1-yl)pyridin-3-yl)ethyl)-1-methoxycyclohexane-1-carboxamide]	9.9 nM
O=C(N[C@H]1CCN(c2ccc(-c3cc(OCCF)cn4nc5[nH]ncc5c34)cn2)C[C@H]1O)c1c(F)cccc1F [Compound 267, N-((3R,4S)-1-(5-(6-(2-fluoroethoxy)-1H-pyrazolo[3′,4′:3,4]pyrazolo[1,5-α]pyridin-4-yl)pyridin-2-yl)-3-hydroxypiperidin-4-yl)-2,6-difluorobenzamide]	3 nM
